From publication PMC11591356, “Immunomodulatory Effects of the Tobacco Defensin NaD1” (Antibiotics, 2024)
Read-outs that look alike come from different tables or passages of the source. Ends that are not written are not given here.

Key:
[1] = system: human smooth muscles (CASMC); parameters: method as in PMID 28179997; conditions: read-out: IC50, MTT cell viability assay; cited from earlier work
[2] = system: Candida albicans ATCC 18804; assay: Antifungal microdilution assay with or without LPS or zymosan; type: cell-based
Procedure: The antifungal assay was performed by the microdilution method using 96-well microplates as described. Briefly, C. albicans ATTC 18804 cells in stock were inoculated onto Sabouraud agar plates with 2% glucose and incubated for 24 h at 37 °C. After replating, cells were inoculated in Sabouraud broth and cultured at 37 °C for 2 h. The cell concentration was determined using a LUNA-II cell counter (Logos Biosystems, Anyang-si, Republic of Korea). Yeast cells in Sabouraud broth diluted to concentration of 4 × 10^4 cells/mL were mixed with equal volumes of serial two-fold dilutions of the peptides in water and the plates were incubated at 30 °C for 24 h. The final peptide concentrations in the wells were 25, 12.5, 6.25, 3.13, 1.56, 0.78 and 0.39 μM. Controls without peptides were also tested. […] Yeast growth was assessed using an inverted light microscope and also by measuring absorbance at 630 nm. The minimum inhibitory concentrations IC50 and MIC were defined as the lowest peptide concentrations inhibiting fungal growth by at least 50 and 100%, respectively. […] The MFCs corresponded to the minimal peptide concentration, in which no colony growth was observed.
To estimate the effects of LPS and zymosan on the antifungal activity of NaD1 and LL-37, these PAMPs were added in culture media at concentrations of 10, 40 and 100 μg/mL [39, 40]. All of the experiments were performed twice in triplicate.

[3] = system: THP-1-derived macrophages; assay: ELISA assay of cytokine production by THP-1-derived macrophages; type: cell-based, human
Procedure: THP-1 (ATCC TIB-202) cells were thawed and cultured in complete RPMI-1640, containing 10% FBS (Capricorn Scientific) and 1×AA solution in CO2-intubator. Monocytic THP-1 cells were differentiated into resting M0 macrophages by stimulation for 24 h with 100 ng/mL phorbol 12-myristate 13-acetate (PMA) in complete RPMI-1640. Then, the attached macrophage-like cells were washed out with culture medium without serum and incubated for another 48 h in PMA-free complete culture medium with 10% HS and 1×AA solution.
THP-1-derived macrophages were seeded into the wells of a 24-well plate at a density of 2.7 × 10^5 cells/well in complete RPMI-1640 with 10% HS and 1×AA solution. Then, 24 h later, the culture medium was replaced by the fresh complete RPMI-1640 containing lipopolysaccharide from Escherichia coli 0111:B4 (LPS, Sigma, St. Louis, MO, USA) or zymosan from the cell wall of Saccharomyces cerevisiae (Serva, Heidelberg, Germany) at concentrations of 1 or 10 μg/mL, respectively; antimicrobial peptides NaD1, Psd1, LL-37 or HBD2 at concentrations of 2 or 0.2 µM; and combinations of antimicrobial peptides with LPS or zymosan at the same concentrations. Insoluble zymosan was resuspended in sterile water and sonicated twice for 30 s; after that, the stock solution was heated to 80 °C for 20 min. Peptides were added 2 h before stimulation with LPS and zymosan. After that, PAMPs solutions were added and the cells were cultured for 24 h. Complete RPMI-1640 only was used in the control wells. Culture supernatants were collected and stored at −70 °C prior to the cytokines’ assessment.
The production of pro- and anti-inflammatory cytokines IL-1β, IL-6, TNF-α and IL-10 by stimulated and non-stimulated THP-1-derived macrophages were estimated by using ELISA kits (Vector-Best, Koltsovo, Russia). Briefly, 96-well plates with adsorbed monoclonal antibodies to the corresponding cytokine were used. Undiluted or diluted 5, 20 or 80 times in the case of IL-10, TNF-α and IL-1β or IL-6, respectively, culture supernatants from the wells of 24-well plates were taken for analysis. Biotinylated polyclonal antibodies to cytokines, streptavidin conjugated to HRP and TMB substrate were further used for the detection of immune complexes. A panel of calibration solutions containing different concentrations of cytokines was used in each experiment. Experiments were performed using two biological and two technical repeats. The release of the cytokines in the control and experimental samples was compared with an unpaired two-sample t-test using GraphPad Prism v.8.0.1 (GraphPad Software, Inc., San Diego, CA, USA). The p values ≤ 0.05 were considered significant.

[4] = system: umbilical vein endothelial cells (HUVEC); parameters: method as in PMID 28179997; conditions: read-out: IC50, MTT cell viability assay; cited from earlier work
[5] = system: Caco-2 cells not in a monolayer; conditions: 24 h, resazurin
Procedure: (§1) The cytotoxic effects of the tobacco defensin NaD1 towards PBMCs or Caco-2 cells were investigated in 96-well plates using the resazurin method as previously described. In brief, 4 × 10^5 per well Caco-2 cells not in a monolayer as well as Caco-2 cells in a monolayer in DMEM/F12 (1:1) medium with 10% FBS or 2 × 10^6 PBMCs per well in RPMI-1640 also with 10% FBS were incubated with serial dilutions of NaD1 at final concentrations from 0.39 to 50 μM or from 2.1 to 180 μM for 24 h. After that, resazurin (Sigma, St. Louis, MO, USA) was added at a final concentration of 70 µM and the plates were incubated overnight (16–18 h). Untreated cells and cells treated by non-ionogenic detergent Triton X-100 were used as negative and positive controls, respectively. […] The cell viability was estimated by resorufin fluorescence registered at […] via the following equation: cell viability (%) = (Fsample/Fcontrol) × 100%. Experiment was carried out twice in duplicate.

[6] = system: Caco-2 cells in a monolayer; assay: Cytotoxicity assay, resazurin method, Caco-2 cells in a monolayer; type: cell-based, human; conditions: 24 h; for Cell viability: Caco-2 monolayer
Procedure: as §1

[7] = peptide 2 µM 2 h before LPS 1 μg/mL, 24 h, vs LPS alone
[8] = peptide 2 µM 2 h before zymosan 10 μg/mL, 24 h, vs zymosan alone

NaD1: Recombinant tobacco floral defensin NaD1 (UNIPROT Q8GTM0), obtained by heterologous expression in E. coli; FITC-labeled in the permeability assay (RECKTESNTFPGICITKPPCRKACISEKFTDGHCSKILRRCLCTKPC; cysteine pairing not given here; also: FITC label; UniProt Q8GTM0 26-72, looked up)
IC50 [1]: ~10 µM | IC50 ([2]; 10 μg/mL LPS): 3.12 to 6.25 µM | MFC ([2]; 10 μg/mL LPS): 12.5 µM | MIC ([2]; 10 μg/mL LPS): 6.25 µM | IC50 ([2]; 10 μg/mL Zymosan): 3.12 to 6.25 µM | MFC ([2]; 10 μg/mL Zymosan): 12.5 µM | MIC ([2]; 10 μg/mL Zymosan): 6.25 µM | IC50 ([2]; 40 μg/mL LPS): 3.12 to 6.25 µM | MFC ([2]; 40 μg/mL LPS): 12.5 µM | MIC ([2]; 40 μg/mL LPS): 6.25 µM | IC50 ([2]; 40 μg/mL Zymosan): 3.12 to 6.25 µM | MFC ([2]; 40 μg/mL Zymosan): 25 µM | MIC ([2]; 40 μg/mL Zymosan): 6.25 µM | IC50 ([2]; 100 μg/mL LPS): 3.12 to 6.25 µM | MFC ([2]; 100 μg/mL LPS): 12.5 µM | MIC ([2]; 100 μg/mL LPS): 12.5 µM | IC50 ([2]; 100 μg/mL Zymosan): 3.12 to 6.25 µM | MFC ([2]; 100 μg/mL Zymosan): 25 µM | MIC ([2]; 100 μg/mL Zymosan): 6.25 µM | MIC ([2]; without PAMP, Sabouraud broth, 30 °C, 24 h, 100% growth inhibition): 6.25 µM | IC50 ([2]; without PAMP, Sabouraud broth, 30 °C, 24 h, lowest concentration inhibiting growth by at least 50%, twice in triplicate): 3.12 to 6.25 µM | MFC ([2]; without PAMP, plating on Sabouraud agar, 37 °C, 24 h, no colony growth): 12.5 µM | IL-10 production by M0 and M1 macrophages ([3]; elevation from 150 (without NaD1)): 180 pg/mL | IL-1β production by M0 and M1 macrophages ([3]; increase from 4500 (without NaD1)): 6500 pg/mL | LPS-induced IL-1β production [3, 7]: increased the LPS-induced production of IL-1β | LPS-induced IL-10 production [3, 7]: increased the LPS-induced production of IL-10 | LPS-induced TNF-α secretion [3, 7]: reduced the LPS-induced secretion of TNF-α | IL-1β production in the presence of zymosan [3, 8]: induced the production of IL-1β (p <0.0001) more strongly than without this PAMP | IL-10 production in the presence of zymosan [3, 8]: increased the production of IL-10 in the presence of zymosan | IL-10 production, unstimulated macrophages ([3]; peptide 2 µM alone, vs unstimulated control): induced the production of IL-10 | IL-1β production, unstimulated macrophages ([3]; peptide 2 µM alone, vs unstimulated control, two biological and two technical repeats): significantly increased IL-1β level | IC50 [4]: ~10 µM | CC50 ([5]; calculated): 61.8 µM | Cell viability ([5]; peptide 53.3 µM): approximately 62% | Cell viability ([5]; peptide 180 μM): 8% | Cell viability ([6]; peptide 25 µM): approximately 85% | Cell viability ([6]; peptide 50 µM): ~70% | Cytotoxic effect on Caco-2 cells in a monolayer ([6]; peptide 12.5 µM): no effects
